Results taken from PubChem BioAssay (NCI).
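Grown in 96-well plates, cells were treated for 48 hours with each compound at five concentrations. Insufficient inhibition: endpoint recorded as highest concentration tested. Abbreviation: GI50, concentration required for 50% inhibition of growth. TGI marks complete inhibition of growth.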

What was measured:
Assay in all cases: inhibition of tumour cell growth, NCI panel, 48 h
[1] = tested on: MDA-MB-468 breast
[2] = tested on: SK-MEL-5 melanoma
[3] = tested on: RXF 393 renal
[4] = tested on: HCT-116 colon
[5] = tested on: ACHN renal
[6] = tested on: NCI-H522 lung
[7] = tested on: HL-60(TB) leukemia
[8] = tested on: SF-539 CNS
[9] = tested on: SW-620 colon
[10] = tested on: SK-MEL-28 melanoma
[11] = tested on: IGROV1 ovarian
[12] = tested on: KM12 colon
[13] = tested on: HCT-15 colon
[14] = tested on: A498 renal
[15] = tested on: MDA-MB-231 breast
[16] = tested on: SNB-19 CNS
[17] = tested on: MOLT-4 leukemia
[18] = tested on: LOX IMVI melanoma
[19] = tested on: OVCAR-8 ovarian
[20] = tested on: MALME-3M melanoma
[21] = tested on: DU-145 prostate
[22] = tested on: MCF7 breast
[23] = tested on: COLO 205 colon
[24] = tested on: T-47D breast
[25] = tested on: BT-549 breast
[26] = tested on: OVCAR-4 ovarian
[27] = tested on: OVCAR-5 ovarian
[28] = tested on: SF-268 CNS
[29] = tested on: SK-MEL-2 melanoma
[30] = tested on: UO-31 renal
[31] = tested on: UACC-62 melanoma
[32] = tested on: SF-295 CNS
[33] = tested on: TK-10 renal
[34] = tested on: EKVX NSCLC
[35] = tested on: SNB-75 CNS
[36] = tested on: HS 578T breast
[37] = tested on: K-562 leukemia
[38] = tested on: MDA-MB-435
[39] = tested on: U251 CNS
[40] = tested on: A549 NSCLC
[41] = tested on: RPMI-8226 leukemia
[42] = tested on: HCC-2998 colon
[43] = tested on: OVCAR-3 ovarian
[44] = tested on: NCI-H460 lung
[45] = tested on: M14 melanoma
[46] = tested on: SN12C renal
[47] = tested on: PC-3 prostate

SMILES: Cc1c(C(=O)/C=C/c2csc3ccccc23)[n+](=O)c2ccccc2n1[O-]
- GI50 [1]: 1.71 µM
- TGI [1]: 3.6 µM

SMILES: C[C@H](Nc1ncnc2nc[nH]c12)c1cc2cccc(Cl)c2c(=O)n1-c1ccccc1
- GI50 [1]: 1.55 µM
- TGI [1]: 22.9 µM

SMILES: COC(=O)[C@H](Cc1cn(C)cn1)NC(=O)[C@H](Cc1c[nH]c2ccccc12)NC(=O)Nc1cc(C(F)(F)F)cc(C(F)(F)F)c1
- GI50 [1]: > 10 µM
- TGI [1]: > 10 µM

SMILES: COC[C@@H](CC(C)C)N=C1NC(=O)/C(=C/c2ccc3ncsc3c2)N1
- GI50 [2]: 2.8 µM
- TGI [2]: 8.85 µM
- GI50 [3]: 1.91 µM
- TGI [3]: 4.96 µM
- GI50 [4]: 1.45 µM
- TGI [4]: 66.4 µM
- GI50 [5]: 2.46 µM
- TGI [5]: 11.4 µM
- GI50 [6]: 1.16 µM
- TGI [6]: 4.89 µM
- GI50 [7]: 3.11 µM
- TGI [7]: 8.36 µM
- GI50 [8]: 1.04 µM
- TGI [8]: 4.54 µM
- GI50 [9]: 2.14 µM
- TGI [9]: 20 µM
- GI50 [10]: 2.69 µM
- TGI [10]: 8.69 µM
- GI50 [11]: 2.42 µM
- TGI [11]: 22 µM
- GI50 [12]: 3.19 µM
- TGI [12]: 34.5 µM
- GI50 [13]: 2.66 µM
- TGI [13]: > 100 µM
- GI50 [14]: 1.93 µM
- TGI [14]: 7.93 µM
- GI50 [15]: 3.65 µM
- TGI [15]: > 100 µM
- GI50 [16]: 1.76 µM
- TGI [16]: 48.3 µM
- GI50 [17]: 2.68 µM
- TGI [17]: 15.4 µM
- GI50 [18]: 2.57 µM
- TGI [18]: > 100 µM
- GI50 [19]: 2.88 µM
- TGI [19]: > 100 µM
- GI50 [20]: 2.53 µM
- TGI [20]: 7.29 µM
- GI50 [21]: 3.06 µM
- TGI [21]: > 100 µM
- GI50 [22]: 2.64 µM
- TGI [22]: > 100 µM
- GI50 [23]: 1.94 µM
- TGI [23]: 6.28 µM
- GI50 [24]: 1.96 µM
- TGI [24]: 9.01 µM
- GI50 [25]: 1.56 µM
- TGI [25]: 7.59 µM
- GI50 [1]: 1.98 µM
- TGI [1]: 10.8 µM
- GI50 [26]: 6.14 µM
- TGI [26]: 79.3 µM
- GI50 [27]: 3.04 µM
- TGI [27]: > 100 µM
- GI50 [28]: 3.41 µM
- TGI [28]: 19 µM
- GI50 [29]: 1.88 µM
- TGI [29]: 4.32 µM
- GI50 [30]: 2.36 µM
- TGI [30]: 6.7 µM
- GI50 [31]: 2.19 µM
- TGI [31]: 8.63 µM
- GI50 [32]: 3.46 µM
- TGI [32]: > 100 µM
- GI50 [33]: 2.95 µM
- TGI [33]: > 100 µM
- GI50 [34]: 3.27 µM
- TGI [34]: 75.8 µM
- GI50 [35]: 1.04 µM
- TGI [35]: 6.75 µM
- GI50 [36]: 2.26 µM
- TGI [36]: 8.33 µM
- GI50 [37]: 2.8 µM
- TGI [37]: > 100 µM
- GI50 [38]: 3.56 µM
- TGI [38]: 18.7 µM
- GI50 [39]: 2.58 µM
- TGI [39]: > 100 µM
- GI50 [40]: 2.03 µM
- TGI [40]: > 100 µM
- GI50 [41]: 2.8 µM
- TGI [41]: 9.52 µM
- GI50 [42]: 4.03 µM
- TGI [42]: 56.4 µM
- GI50 [43]: 1.22 µM
- TGI [43]: 4.32 µM
- GI50 [44]: 3.08 µM
- TGI [44]: > 100 µM
- GI50 [45]: 3.88 µM
- TGI [45]: 22 µM
- GI50 [46]: 2.71 µM
- TGI [46]: 30 µM
- GI50 [47]: 3.9 µM
- TGI [47]: 52.7 µM
